Patent US20050192340A1, “Simvastatin formulations and methods of making same” (priority 2003, published 2005)

Assay: In vitro hydrolysis of simvastatin formulations under simulated gastric conditions (dissolution in 0.1N HCl, HPLC)
Assay type: physicochemical
Details: 37° C.
Experimental: Generally, the simvastatin formulations were prepared by heating menthol to about 60° C. while stirring and adding a surface active agent (either TWEEN® or Poloxamer) and sodium ducosate or sodium lauryl sulfate. The mixture was stirred until all the components dissolved to form a melt. Thereafter, the melt was cooled to about 50° C., simvastatin was added during stirring until dissolved, the mixture was cooled to room temperature, and dispensed into capsules. After about an hour the liquid in the capsule had gelled. Each capsule was filled with enough formulation to have a dose of 20 mg of simvastatin.
Each formulation was tested by dissolution in 50 ml of 0.1N HCl at 37° C. with stirring. […] It was determined that the retention times for the simvastatin hydroxyl acid was 3.6 minutes and simvastatin lactone was 5.7 minutes.

CCC(C)(C)C(=O)O[C@H]1C[C@@H](C)C=C2C=C[C@H](C)[C@H](CCC3C[C@@H](O)CC(=O)O3)[C@H]21 (stereo partly drawn) [Simvastatin 100%]
0%: % hydrolyzed Simvastatin (0.1N HCl, 60 min, weight % hydrolyzed simvastatin from the initial simvastatin amount) | % converted to hydroxyl acid (0.1N HCl, 60 min, weight % of the total dissolved simvastatin in the open hydroxy acid form) | % Dissolved 60 min 0.1 N HCl (50 ml 0.1N HCl, stirring, total dissolved simvastatin (closed lactone + open hydroxy acid form), 20 mg capsule)
